From PubChem BioAssay (NCI)
Values joined by “and” are separate entries in the source; they are usually repeats but may differ in a detail not shown here. Equal entries are not always repeated.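 Method: 48-hour compound exposure of cells in 96-well plates, five concentrations, linear interpolation of endpoints. GI50 is the concentration that inhibits growth by half. TGI: concentration producing complete growth inhibition.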

Assays:
Test in all cases: growth of human tumour cells (NCI), 48 h
786-0 renal = system: 786-0 renal
CCRF-CEM leukemia = system: CCRF-CEM leukemia
HCT-116 colon = system: HCT-116 colon
HL-60(TB) leukemia = system: HL-60(TB) leukemia
LOX IMVI melanoma = system: LOX IMVI melanoma
MALME-3M melanoma = system: MALME-3M melanoma
MCF7 breast = system: MCF7 breast
NCI-H23 lung = system: NCI-H23 lung
SK-MEL-28 melanoma = system: SK-MEL-28 melanoma
TK-10 renal = system: TK-10 renal

| Structure (SMILES) | GI50 (786-0 renal) | TGI (786-0 renal) | GI50 (CCRF-CEM leukemia) | TGI (CCRF-CEM leukemia) | GI50 (HCT-116 colon) | TGI (HCT-116 colon) | GI50 (HL-60(TB) leukemia) | TGI (HL-60(TB) leukemia) | GI50 (LOX IMVI melanoma) | TGI (LOX IMVI melanoma) | GI50 (MALME-3M melanoma) | TGI (MALME-3M melanoma) | GI50 (MCF7 breast) | TGI (MCF7 breast) | GI50 (NCI-H23 lung) | TGI (NCI-H23 lung) | GI50 (SK-MEL-28 melanoma) | TGI (SK-MEL-28 melanoma) | GI50 (TK-10 renal) | TGI (TK-10 renal) |
| --- | --- | --- | --- | --- | --- | --- | --- | --- | --- | --- | --- | --- | --- | --- | --- | --- | --- | --- | --- | --- |
| COc1ccc(-c2nn(-c3cccc(Cl)c3)cc2-c2c(C#N)c(=O)n3[nH]c(-c4ccc(C)cc4)nc3c2C#N)cc1 | 1.39 µM | 5.93 µM | 1.23 µM | > 50 µM | 1.24 µM | 6 µM | 8.33 µM | 29.6 µM | 2.44 µM | 17.1 µM | 2.16 µM | 9.12 µM | 3.22 µM | 11.4 µM | 3.18 µM | 10.6 µM | 6.55 µM | 13.2 µM | 2.01 µM | 7.35 µM |
| Clc1ccc(C(c2ccc(Cl)cc2)N2CCNCC2)cc1 | – | 3.17 µM | – | 15.3 µM | – | 3.84 µM | – | 4.57 µM | – | 4.53 µM | – | 3.12 µM | – | 3.86 µM | – | 21.6 µM | – | 3.45 µM | – | 3.74 µM |
| CN[C@@H]1C[C@H]2O[C@@](C)([C@@H]1OC)n1c3ccccc3c3c4c(c5c6ccccc6n2c5c31)C(=O)N[C@H]4O | – | 0.203 µM | 0.0307 µM | > 10 µM | 0.166 µM | 1.89 µM | – | 0.52 µM | – | 1.09 µM | 0.0217 µM | 0.486 µM | 0.0283 µM | 1.51 µM | 0.0285 µM | 0.847 µM | 0.0845 µM | 1.48 µM | 0.0096 µM | 0.0541 µM |
| C[n+]1c2ccccc2c(Nc2ccc(NS(=O)(=O)CCCCN=C(N)N)cc2)c2ccc(N)cc21 | 3.8 µM | > 100 µM | 0.303 µM | > 35.9 µM | 1.49 µM | > 100 µM | 1.64 µM | > 56.1 µM | 1.82 µM | > 100 µM | 4.06 µM | 35.2 µM | 0.0429 µM | > 81.2 µM | 0.152 µM | 90.4 µM | 11.2 µM | > 72.3 µM | 6.47 µM | 58.3 µM |
| COc1ccc2c(c1)c1nc3cc(C)c(C)cc3nc1n2CCN(C)C | 1.02 µM | 2.73 µM | 0.797 µM | 3.67 µM | 0.354 µM | 1.64 µM | 0.992 µM | 3.36 µM | 0.375 µM | 1.6 µM | 1.11 µM | 2.53 µM | 0.333 µM | 1.42 µM | 1.02 µM | 2.88 µM | 1.65 µM | 3.29 µM | 1.84 µM | 3.58 µM |
| COc1ccc2c3c(c4ccccc4cc13)C(=O)N(CCN(C)CCN)C2=O | 0.0388 µM | 0.7 µM | 0.021 µM | 0.22 µM | 0.0312 µM | 1.17 µM | 0.0272 µM | 0.361 µM | 0.0446 µM | 0.381 µM | 0.0799 µM | 1.27 µM | 0.0133 µM | 1.1 µM | 0.0902 µM | 1.28 µM | 1.09 µM | 2.48 µM | 0.13 µM | 1.31 µM |
| Oc1ccc2ccccc2c1C1NN=C(c2ccccc2)S1 (stereo unspecified) | 0.424 µM | > 34.6 µM | 0.359 µM | > 100 µM | 0.408 µM | > 34.4 µM | 0.353 µM | 4.13 µM | 0.327 µM | 13 µM | 1.56 µM | 21 µM | 0.426 µM | 21.2 µM | 1.26 µM | 48.7 µM | 0.799 µM | 97.8 µM | 0.559 µM | 38.2 µM |
| CCOc1ccc2nc(-c3cccc(OCC(=O)NC(C)C)c3)nc(Nc3ccc(-c4cn[nH]c4)cc3)c2c1 | 0.553 µM | 2.63 µM | 0.315 µM | > 51.6 µM | 0.783 µM | 3.18 µM | 0.661 µM | 3.41 µM | 0.491 µM | 2.33 µM | 0.324 µM | 1.79 µM | 0.348 µM | 2.11 µM | 1.29 µM | 10.2 µM | 1.13 µM | 3 µM | 1.89 µM | 5.2 µM |
| COc1ccc([I+]c2ccccc2)cc1 | 16.4 µM | > 100 µM | 2.86 µM | > 100 µM | 0.735 µM | > 100 µM | 5.22 µM | > 95.1 µM | 3.47 µM | > 100 µM | 7.8 µM | > 100 µM | 5.69 µM | > 100 µM | 3.75 µM | > 100 µM | 25.9 µM | > 100 µM | 17.4 µM | > 100 µM |
| O=C1NC(=O)C(c2ccc(Cl)cc2)=C1Nc1ccc(Cl)c(C(=O)O)c1 | > 25 µM | > 25 µM | > 25 µM | > 25 µM | > 25 µM | > 25 µM | > 25 µM | > 25 µM | > 25 µM | > 25 µM | > 25 µM | > 25 µM | > 25 µM | > 25 µM | > 25 µM | > 25 µM | > 25 µM | > 25 µM | > 25 µM | > 25 µM |
| OC(C1CO1)C(O)C1CO1 (stereo unspecified) | 18.7 µM | 48.5 µM and 139 µM | 1.53 µM | 120 µM and 392 µM | 40.2 µM | 110 µM and 209 µM | 2.33 µM | 65.2 µM and 49.5 µM | 12 µM | 78.3 µM and 233 µM | – | 125 µM and 263 µM | 3.89 µM | 140 µM and 78.2 µM | 36.4 µM | 90 µM and 369 µM | – | 144 µM and 239 µM | 182 µM | 150 µM and 404 µM |
| O=C1C(Cl)=C(Nc2cccc(O)c2)C(=O)N1Cc1ccc(Cl)cc1 | 1.63 µM | 28.1 µM | 2.98 µM | > 100 µM | 3.66 µM | 25 µM | 0.993 µM | 11 µM | 1.47 µM | 6.34 µM | 0.464 µM | 8.11 µM | 2.75 µM | 14.6 µM | 2.17 µM | 8.31 µM | 4.93 µM | 23 µM | 5.86 µM | 19.8 µM |
| O=C(O)c1ccc2c3c(ncnc13)-c1ccccc1C2=O | 37 µM | > 100 µM | > 84.6 µM | > 100 µM | 27.2 µM | > 100 µM | 27.3 µM | > 100 µM | 1.74 µM | 18.5 µM | 0.517 µM | 1.58 µM | 4.14 µM | > 100 µM | 0.796 µM | 3.05 µM | 1.64 µM | 4.04 µM | 21.9 µM | > 100 µM |
| CCOC(=O)NC1=C(N2CC2)C(=O)C(NC(=O)OCC)=C(N2CC2)C1=O | 4.02 µM and 1.78 µM | 25 µM and 18.4 µM and 33.2 µM | 3.47 µM and 1.88 µM | 9.8 µM and 16.1 µM and 12.1 µM | 4.59 µM and 4.37 µM | 15.1 µM and 9.91 µM and 11.8 µM | 1.85 µM and 0.403 µM | 11 µM and 4 µM and 1.49 µM | – | 17.1 µM and 11.9 µM | 5.79 µM | 18 µM and 18.3 µM and 15.6 µM | 6.33 µM | 25 µM and 21.3 µM | 2.87 µM and 1.61 µM | 15.6 µM and 14.1 µM and 7.55 µM | 22.3 µM and 16.6 µM | 25 µM and 42.4 µM and 54.4 µM | > 25 µM | > 25 µM and 65.1 µM |
| COc1ccc2nc(NCN3C(=O)c4ccccc4C3=O)sc2c1 | – | > 100 µM | – | > 100 µM | – | > 100 µM | – | > 100 µM | – | > 100 µM | – | > 100 µM | – | > 100 µM | – | > 100 µM | – | > 100 µM | – | > 100 µM |
| Fc1cccc(CSc2ncnc3c2ncn3C2CCCS2)c1 (stereo unspecified) | – | 51.5 µM | – | 46.6 µM | – | 26.3 µM | – | 32.1 µM | – | 34.9 µM | – | 49.3 µM | – | 63.7 µM | – | 62.1 µM | – | 50.8 µM | – | > 100 µM |
| NC(=S)N/N=C/c1ccc(O)cn1 | 9.37 µM and 2.96 µM | 46 µM and > 408 µM | 4.59 µM and 2.42 µM | 37.4 µM and 12 µM and 60.8 µM | 13.7 µM and 6.53 µM | > 1500 µM and 369 µM | 13.7 µM | 44.7 µM and 21 µM and 21.7 µM | 12.4 µM | – | 31 µM and 13.4 µM | 113 µM and 138 µM | 2.03 µM | > 1500 µM | 3.48 µM | – | 49.9 µM and 41.6 µM | > 1500 µM and 1050 µM | – | > 1390 µM |
| CN1CCC(C(=O)Nc2n[nH]c3nc(-c4ccc(O)cc4)c(Br)cc23)CC1 | 3.58 µM and 3.13 µM | 21.4 µM and 24.8 µM | 0.835 µM and 0.996 µM | > 25 µM | 0.776 µM and 0.855 µM | > 25 µM | 0.988 µM and 0.333 µM | 4 µM and 1.25 µM | 0.574 µM and 0.661 µM | 5.45 µM and > 12.2 µM | 3.56 µM and 4.97 µM | 11.1 µM and 11.7 µM | 0.557 µM and 0.724 µM | > 22 µM | 4.19 µM and 6.88 µM | 16.1 µM and > 25 µM | 1.21 µM and 2.46 µM | 6.15 µM and 7.56 µM | 3.16 µM and 6.15 µM | 15.3 µM and 17.1 µM |
| CC(C)[NH-].CC(C)[NH-].O.O.[Cl][Pt+2][Cl] | 33.8 µM | 126 µM | 6.59 µM | 97.7 µM | 20.6 µM | 69.3 µM | 15.3 µM | 83.7 µM | 18.3 µM | 51.4 µM | 19.4 µM | 57.8 µM | 19.4 µM | 102 µM | 30.8 µM | 183 µM | 46.8 µM | 197 µM | 190 µM | 467 µM |
| Cc1cc(Oc2cnc(=O)[nH]c2)cs1 | – | > 100 µM | – | > 100 µM | – | > 100 µM | – | > 100 µM | – | > 100 µM | – | > 100 µM | – | > 100 µM | – | > 100 µM | – | > 100 µM | – | > 100 µM |
